{
  "source": "patent US20240384350A1",
  "about": "“METHODS OF TREATING CANCER WITH KINASE INHIBITORS” (BOARD OF REGENTS, THE UNIVERSITY OF TEXAS SYSTEM, priority 2021, published 2024)",
  "experiment_in_all_cases": "Ba/F3 drug screening, Cell Titer Glo, IC50 Mut/WT",
  "format_in_all_cases": "cell-based",
  "key": {"[1]": {"target": "T1, EGFR Ex19del G796S (Homo sapiens, UniProt P00533, DEL746-750/G796S)", "T1 construct": "expressed in transfected cells; host or cells: Ba/F3", "conditions": "PACC; Ex19del G796S; Ba/F3; 72 hours"}, "[2]": {"target": "T2, EGFR Ex19del T790M L718V (Homo sapiens, UniProt P00533, DEL746-750/L718V/T790M)", "T2 construct": "expressed in transfected cells; host or cells: Ba/F3", "conditions": "T790M-like-3S, 72 hours"}, "[3]": {"target": "T3, EGFR S768I (Homo sapiens, UniProt P00533, S768I)", "T3 construct": "expressed in transfected cells; host or cells: Ba/F3", "conditions": "PACC; S768I; Ba/F3; 72 hours", "procedure": "(§1) Data represent the ratio of the IC50 value for a given TKI for cells with a PACC EGFR mutation to the IC50 value for cells with wildtype EGFR.\n(§2) Ba/F3 cell generation, drug screening, and IC50 approximations. Ba/F3 cells were obtained as a gift from Dr. Gordon Mills (MD Anderson Cancer Center), and maintained in RPMI (Sigma) containing 10% FBS, 1% penicillin/streptomycin, and 10 ng/ml recombinant mIL-3 (R&D Biosystems). To establish stable Ba/F3 cell lines, Ba/F3 cells were transduced with retroviruses containing mutant EGFR plasmids for 12-24 hours.\n(§3) After 48-72 hours of transduction, 2 μg/ml puromycin (Invitrogen) was added to Ba/F3 cell lines in complete RPMI. To select for EGFR positive cell lines, cells were stained with PE-EGFR (Biolegend) and sorted by FACS. After sorting, EGFR positive cells were maintained in RPMI containing 10% FBS, 1% penicillin/streptomycin, and 1 ng/ml EGF to support cell viability. Drug screening was performed as previously described^41,42. Shortly, cells were plated in 384-well plates (Greiner Bio-One) at 2000-3000 cells per well in technical triplicate. Seven different concentrations of TKIs or DMSO vehicle were added to reach a final volume of 40 μL per well. After 72 hours, 11 μL of Cell Titer Glo (Promega) was added to each well. Plates were incubated for a minimum of 10 minutes, and bioluminescence was determined using a FLUOstar OPTIMA plate reader (BMG LABTECH). Raw bioluminescence values were normalized to DMSO control treated cells, and values were plotted in GraphPad Prism. […] Drug screens were performed in technical triplicate on each plate and either duplicate or triplicate biological replicates. […] Statistical differences between groups were determined by ANOVA as described in the figure legends."}, "[4]": {"target": "T4, EGFR S768dupSVD V769M (Homo sapiens, UniProt P00533, INS768MDS/V769M)", "T4 construct": "expressed in transfected cells; host or cells: Ba/F3 cells, retroviral pBabe-Puro vector (vector made by GeneScript from EGFR S768dupSVD, c.2305G > A)", "conditions": "Ex20, 72 hours", "procedure": "(§4) Data represent the ratio of the IC50 value for a given TKI for cells with an ex20ins EGFR mutation to the IC50 value for cells with wildtype EGFR.\nas §2, §3"}, "[5]": {"target": "T5, EGFR D770insNPG (Homo sapiens, UniProt P00533, INS770NPG)", "T5 construct": "expressed in transfected cells; host or cells: Ba/F3 cells, retroviral pBabe-Puro vector", "conditions": "Ex20, 72 hours", "procedure": "as §4, §2, §3"}, "[6]": {"target": "T6, EGFR R776H (Homo sapiens, UniProt P00533, R776H)", "T6 construct": "host or cells: Ba/F3", "conditions": "PACC; R776H; Ba/F3; 72 hours", "procedure": "as §1, §2\n(§5) After 48-72 hours of transduction, 2 μg/ml puromycin (Invitrogen) was added to Ba/F3 cell lines in complete RPMI. To select for EGFR positive cell lines, cells were stained with PE-EGFR (Biolegend) and sorted by FACS. After sorting, EGFR positive cells were maintained in RPMI containing 10% FBS, 1% penicillin/streptomycin, and 1 ng/ml EGF to support cell viability. Drug screening was performed as previously described^41,42. Shortly, cells were plated in 384-well plates (Greiner Bio-One) at 2000-3000 cells per well in technical triplicate. Seven different concentrations of TKIs or DMSO vehicle were added to reach a final volume of 40 μL per well. After 72 hours, 11 μL of Cell Titer Glo (Promega) was added to each well. Plates were incubated for a minimum of 10 minutes, and bioluminescence was determined using a FLUOstar OPTIMA plate reader (BMG LABTECH). Raw bioluminescence values were normalized to DMSO control treated cells, and values were plotted in GraphPad Prism. […] Drug screens were performed in technical triplicate on each plate and either duplicate or triplicate biological replicates."}, "[7]": {"target": "T7, EGFR G719A T790M (Homo sapiens, UniProt P00533, G719A/T790M)", "T7 construct": "expressed in transfected cells; host or cells: Ba/F3", "conditions": "T790M-like-3S, 72 hours"}, "[8]": {"target": "T8, EGFR L833F (Homo sapiens, UniProt P00533, L833F)", "T8 construct": "expressed in transfected cells; host or cells: Ba/F3 cells, retroviral pBabe-Puro vector", "conditions": "Classical-Like, 72 hours", "procedure": "(§6) Data represent the ratio of the IC50 value for a given TKI for cells with a classical-like EGFR mutation to the IC50 value for cells with wildtype EGFR.\nas §2\n(§7) After 48-72 hours of transduction, 2 μg/ml puromycin (Invitrogen) was added to Ba/F3 cell lines in complete RPMI. To select for EGFR positive cell lines, cells were stained with PE-EGFR (Biolegend) and sorted by FACS. After sorting, EGFR positive cells were maintained in RPMI containing 10% FBS, 1% penicillin/streptomycin, and 1 ng/ml EGF to support cell viability. […] Shortly, cells were plated in 384-well plates (Greiner Bio-One) at 2000-3000 cells per well in technical triplicate. Seven different concentrations of TKIs or DMSO vehicle were added to reach a final volume of 40 μL per well. After 72 hours, 11 μL of Cell Titer Glo (Promega) was added to each well. Plates were incubated for a minimum of 10 minutes, and bioluminescence was determined using a FLUOstar OPTIMA plate reader (BMG LABTECH). Raw bioluminescence values were normalized to DMSO control treated cells, and values were plotted in GraphPad Prism. […] Drug screens were performed in technical triplicate on each plate and either duplicate or triplicate biological replicates."}, "[9]": {"target": "T9, EGFR K754E (Homo sapiens, UniProt P00533, K754E)", "T9 construct": "expressed in transfected cells; host or cells: Ba/F3 cells, retroviral pBabe-Puro vector", "conditions": "Classical-Like, 72 hours", "procedure": "as §6, §2, §7"}, "[10]": {"target": "T10, EGFR Ex19del T790M C797S (Homo sapiens, UniProt P00533, C797S/DEL746-750/T790M)", "T10 construct": "expressed in transfected cells; host or cells: Ba/F3", "conditions": "T790M-like-3R, 72 hours", "procedure": "Data represent the ratio of the IC50 value for a given TKI for cells with a T790M-like-3R EGFR mutation to the IC50 value for cells with wildtype EGFR.\nas §2\nAfter 48-72 hours of transduction, 2 μg/ml puromycin (Invitrogen) was added to Ba/F3 cell lines in complete RPMI. To select for EGFR positive cell lines, cells were stained with PE-EGFR (Biolegend) and sorted by FACS. After sorting, EGFR positive cells were maintained in RPMI containing 10% FBS, 1% penicillin/streptomycin, and 1 ng/ml EGF to support cell viability. […] Shortly, cells were plated in 384-well plates (Greiner Bio-One) at 2000-3000 cells per well in technical triplicate. Seven different concentrations of TKIs or DMSO vehicle were added to reach a final volume of 40 μL per well. After 72 hours, 11 μL of Cell Titer Glo (Promega) was added to each well. Plates were incubated for a minimum of 10 minutes, and bioluminescence was determined using a FLUOstar OPTIMA plate reader (BMG LABTECH). Raw bioluminescence values were normalized to DMSO control treated cells, and values were plotted in GraphPad Prism. […] Drug screens were performed in technical triplicate on each plate and either duplicate or triplicate biological replicates. […] Statistical differences between groups were determined by ANOVA as described in the figure legends."}, "[11]": {"target": "T11, EGFR L861Q (Homo sapiens, UniProt P00533, L861Q)", "T11 construct": "expressed in transfected cells; host or cells: Ba/F3 cells, retroviral pBabe-Puro vector", "conditions": "Classical-Like, 72 hours", "procedure": "as §6, §2, §7"}, "[12]": {"target": "T12, EGFR G719S (Homo sapiens, UniProt P00533, G719S)", "T12 construct": "expressed in transfected cells; host or cells: Ba/F3", "conditions": "PACC; G719S; Ba/F3; 72 hours"}, "[13]": {"tested_on": "EGFR I740dupIPVAK", "conditions": "PACC; I740dupIPVAK; Ba/F3; 72 hours", "procedure": "as §1, §2, §5"}, "[14]": {"target": "T13, EGFR G724S (Homo sapiens, UniProt P00533, G724S)", "T13 construct": "expressed in transfected cells; host or cells: Ba/F3", "conditions": "PACC; G724S; Ba/F3; 72 hours"}, "[15]": {"target": "T14, EGFR V769L (Homo sapiens, UniProt P00533, V769L)", "T14 construct": "expressed in transfected cells; host or cells: Ba/F3", "conditions": "PACC; V769L; Ba/F3; 72 hours"}, "[16]": {"target": "T15, EGFR L747P (Homo sapiens, UniProt P00533, L747P)", "T15 construct": "expressed in transfected cells; host or cells: Ba/F3", "conditions": "PACC; L747P; Ba/F3; 72 hours"}, "[17]": {"target": "T16, EGFR E709K L858R (Homo sapiens, UniProt P00533, E709K/L858R)", "T16 construct": "expressed in transfected cells; host or cells: Ba/F3 cells, retroviral pBabe-Puro vector", "conditions": "Classical-Like, 72 hours", "procedure": "as §6, §2, §7"}, "[18]": {"target": "T17, EGFR L858R T790M V843I (Homo sapiens, UniProt P00533, L858R/T790M/V843I)", "T17 construct": "expressed in transfected cells; host or cells: Ba/F3", "conditions": "T790M-like-3S, 72 hours", "procedure": "(§8) Data represent the ratio of the IC50 value for a given TKI for cells with a T790M-like-3S EGFR mutation to the IC50 value for cells with wildtype EGFR.\nas §2, §5"}, "[19]": {"target": "T18, EGFR N771dupN G724S (Homo sapiens, UniProt P00533, DUP771-771/G724S)", "T18 construct": "expressed in transfected cells; host or cells: Ba/F3 cells, retroviral pBabe-Puro vector (vector made by GeneScript from EGFR G724S, c.2313_2314insAAC)", "conditions": "Ex20, 72 hours"}, "[20]": {"target": "T19, EGFR E709A G719S (Homo sapiens, UniProt P00533, E709A/G719S)", "T19 construct": "expressed in transfected cells; host or cells: Ba/F3", "conditions": "PACC; E709A G719S; Ba/F3; 72 hours", "procedure": "as §1, §2, §5"}, "[21]": {"target": "T20, EGFR G719S T790M (Homo sapiens, UniProt P00533, G719S/T790M)", "T20 construct": "expressed in transfected cells; host or cells: Ba/F3", "conditions": "T790M-like-3S, 72 hours", "procedure": "as §8, §2, §5"}, "[22]": {"target": "T21, EGFR S720P (Homo sapiens, UniProt P00533, S720P)", "T21 construct": "expressed in transfected cells; host or cells: Ba/F3 cells, retroviral pBabe-Puro vector (vector made by GeneScript from EGFR WT)", "conditions": "Classical-Like, 72 hours", "procedure": "as §6, §2, §7"}, "[23]": {"target": "T22, EGFR L858R S784F (Homo sapiens, UniProt P00533, L858R/S784F)", "T22 construct": "expressed in transfected cells; host or cells: Ba/F3 cells, retroviral pBabe-Puro vector (vector made by GeneScript from EGFR L858R)", "conditions": "Classical-Like, 72 hours", "procedure": "as §6, §2, §7"}, "[24]": {"target": "T23, EGFR L747S (Homo sapiens, UniProt P00533, L747S)", "T23 construct": "expressed in transfected cells; host or cells: Ba/F3", "conditions": "PACC; L747S; Ba/F3; 72 hours"}},
  "data": [
    {"smiles": "CN(C)C/C=C/C(=O)Nc1cc2c(Nc3ccc(Cl)c(Br)c3)ncnc2cn1", "note": "[Tarlox-TKI]", "values": [
      {"measurement": "ratio of IC50 for cells with mutant EGFR to IC50 for cells with wildtype EGFR (Mut/WT)", "setting": "[1]", "value": 25.15},
      {"measurement": "ratio of IC50 for cells with mutant EGFR to IC50 for cells with wildtype EGFR (Mut/WT)", "setting": "[2]", "value": 154.4},
      {"measurement": "ratio of IC50 for cells with mutant EGFR to IC50 for cells with wildtype EGFR (Mut/WT)", "setting": "[3]", "value": 0.3863},
      {"measurement": "ratio of IC50 for cells with mutant EGFR to IC50 for cells with wildtype EGFR (Mut/WT)", "setting": "[4]", "value": 0.33},
      {"measurement": "ratio of IC50 for cells with mutant EGFR to IC50 for cells with wildtype EGFR (Mut/WT)", "setting": "[5]", "value": 5.023},
      {"measurement": "ratio of IC50 for cells with mutant EGFR to IC50 for cells with wildtype EGFR (Mut/WT)", "setting": "[6]", "value": 0.1639},
      {"measurement": "ratio of IC50 for cells with mutant EGFR to IC50 for cells with wildtype EGFR (Mut/WT)", "setting": "[7]", "value": 0.6778},
      {"measurement": "ratio of IC50 for cells with mutant EGFR to IC50 for cells with wildtype EGFR (Mut/WT)", "setting": "[8]", "value": 0.07887},
      {"measurement": "ratio of IC50 for cells with mutant EGFR to IC50 for cells with wildtype EGFR (Mut/WT)", "setting": "[9]", "value": 0.00723},
      {"measurement": "ratio of IC50 for cells with mutant EGFR to IC50 for cells with wildtype EGFR (Mut/WT)", "setting": "[10]", "value": 33.62},
      {"measurement": "ratio of IC50 for cells with mutant EGFR to IC50 for cells with wildtype EGFR (Mut/WT)", "setting": "[11]", "value": 0.05346},
      {"measurement": "ratio of IC50 for cells with mutant EGFR to IC50 for cells with wildtype EGFR (Mut/WT)", "setting": "[12]", "value": 0.002634},
      {"measurement": "ratio of IC50 for cells with mutant EGFR to IC50 for cells with wildtype EGFR (Mut/WT)", "setting": "[13]", "value": 0.5725},
      {"measurement": "ratio of IC50 for cells with mutant EGFR to IC50 for cells with wildtype EGFR (Mut/WT)", "setting": "[14]", "value": 8.499},
      {"measurement": "ratio of IC50 for cells with mutant EGFR to IC50 for cells with wildtype EGFR (Mut/WT)", "setting": "[15]", "value": 0.3024},
      {"measurement": "ratio of IC50 for cells with mutant EGFR to IC50 for cells with wildtype EGFR (Mut/WT)", "setting": "[16]", "value": 2.085},
      {"measurement": "ratio of IC50 for cells with mutant EGFR to IC50 for cells with wildtype EGFR (Mut/WT)", "setting": "[17]", "value": 0.005792},
      {"measurement": "ratio of IC50 for cells with mutant EGFR to IC50 for cells with wildtype EGFR (Mut/WT)", "setting": "[18]", "value": 70.97},
      {"measurement": "ratio of IC50 for cells with mutant EGFR to IC50 for cells with wildtype EGFR (Mut/WT)", "setting": "[19]", "value": 0.8301},
      {"measurement": "ratio of IC50 for cells with mutant EGFR to IC50 for cells with wildtype EGFR (Mut/WT)", "setting": "[20]", "value": 0.1143},
      {"measurement": "ratio of IC50 for cells with mutant EGFR to IC50 for cells with wildtype EGFR (Mut/WT)", "setting": "[21]", "value": 3.949},
      {"measurement": "ratio of IC50 for cells with mutant EGFR to IC50 for cells with wildtype EGFR (Mut/WT)", "setting": "[22]", "value": 0.02412},
      {"measurement": "ratio of IC50 for cells with mutant EGFR to IC50 for cells with wildtype EGFR (Mut/WT)", "setting": "[23]", "value": 0.001643},
      {"measurement": "ratio of IC50 for cells with mutant EGFR to IC50 for cells with wildtype EGFR (Mut/WT)", "setting": "[24]", "value": 0.1733}
    ]}
  ]
}
